From US10301267B2, “Compounds” (AstraZeneca AB, priority 2006, dated 2019)
Structures can show the parent of a compound that is named as a salt.

Target: FGFR1 active kinase (Homo sapiens, UniProt P11362)
Test: FGFR Kinase assay - Caliper; note: 408 µM ATP
Format: biochemical
Settings: FGFR1 […], 408 uM ATP; mean of n as printed; read-out: FGFR Kinase assay - Caliper, IC50
Procedure: FGFR Kinase Assay—Caliper
To determine inhibition of FGFR activity, kinase assays were conducted using Caliper technology.
Kinase activity assays were performed in Greiner 384-well low volume plates, with a total reaction volume of 12 ul per well. Final concentration of FGFR1 active kinase in each reaction well was 7.2 nM. The substrate for each assay was a custom peptide with fluorescent tag (13 amino acids in length, […] with the fluorescene tag on the first K).
Compounds were serially diluted in 5% (v/v) DMSO, before being added to assay plates. The Enzyme (at 7.2 nM [final]) and Substrate (at 3.6 uM [final]) were added separately to the compound plates, in reaction buffer [comprising: 50 mM MOPS (Sigma, Catalogue No. M1254)—pH 6.5, 0.004% Triton (Sigma, Catalogue No. X-100), 2.4 mM DTT, 12 mM MgCl2, 408 uM ATP] resulting in a final DMSO concentration in the reaction mix of 0.8%.
Assay plates were incubated at room temperature for 1.5 h, before the reaction was stopped with the addition of buffer [comprising: 100 mM HEPES—pH7.5, 0.033% Brij-35 (Sigma Catalogue No. B4184), 0.22% Caliper Coating Reagent #3 (Caliper Life Sciences Catalogue No. 760050), 88 mM EDTA, 5% DMSO]. Stopped assay plates were then read using the Caliper LabChip® LC3000 (which uses microfludics to measure a shift in mobility between fluorescent labelled peptide and the FGFR1 kinase—phosphorylated form of this peptide).
In the assay, compounds were tested at a range of concentrations.
Percentage inhibition at 1 uM, as expressed herein, is a calculated value based on the curve fit that was generated experimentally. From the fitted curve plot, the effect of compound at a concentration of 1 uM was calculated as a percentage inhibition. The IC50 is the concentration of compound, which inhibits FGFR1 kinase activity by 50% in the context of this assay.

Sequence of FGFR1 active kinase (P11362 22-822): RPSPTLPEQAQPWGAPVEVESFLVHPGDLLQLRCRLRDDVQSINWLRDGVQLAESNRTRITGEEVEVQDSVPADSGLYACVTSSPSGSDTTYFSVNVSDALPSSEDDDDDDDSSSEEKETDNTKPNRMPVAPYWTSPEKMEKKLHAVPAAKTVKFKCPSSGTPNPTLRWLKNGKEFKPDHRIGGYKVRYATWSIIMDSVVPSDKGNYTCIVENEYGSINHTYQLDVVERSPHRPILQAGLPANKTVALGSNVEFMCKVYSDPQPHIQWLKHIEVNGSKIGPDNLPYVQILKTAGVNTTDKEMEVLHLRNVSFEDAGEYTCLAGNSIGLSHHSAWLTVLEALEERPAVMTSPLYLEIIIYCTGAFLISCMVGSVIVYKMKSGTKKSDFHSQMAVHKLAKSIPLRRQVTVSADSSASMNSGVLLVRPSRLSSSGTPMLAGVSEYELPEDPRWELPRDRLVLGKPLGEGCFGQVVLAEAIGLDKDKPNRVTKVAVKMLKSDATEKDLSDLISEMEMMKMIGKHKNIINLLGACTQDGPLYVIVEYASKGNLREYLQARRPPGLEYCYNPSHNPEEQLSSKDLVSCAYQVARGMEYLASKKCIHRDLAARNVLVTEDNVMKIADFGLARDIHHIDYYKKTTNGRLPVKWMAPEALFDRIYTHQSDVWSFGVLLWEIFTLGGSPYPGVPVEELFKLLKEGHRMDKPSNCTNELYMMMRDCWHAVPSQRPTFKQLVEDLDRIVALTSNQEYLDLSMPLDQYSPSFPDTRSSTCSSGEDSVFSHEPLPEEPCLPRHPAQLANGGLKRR

IC50 [nM]	Structure (SMILES)
231000	COc1cccc(CCc2cc(NC(=O)c3ccc(NC(=O)c4ccccc4)cc3)[nH]n2)c1 [Example 21, 4-Benzamido-N-[5-[2-(3-methoxyphenyl)ethyl]-2H-pyrazol-3-yl]benzamide]
28600	COc1cccc(CCc2cc(NC(=O)c3ccc(C#N)cc3)[nH]n2)c1 [Example 23, 4-Cyano-N-[5-[2-(3-methoxyphenyl)ethyl]-2H-pyrazol-3-yl]benzamide]
940	COc1cccc(CCc2cc(NC(=O)c3ccc(-n4cccn4)cc3)[nH]n2)c1 [Example 25, N-[5-[2-(3-Methoxyphenyl)ethyl]-2H-pyrazol-3-yl]-4-pyrazol-1-yl-benzamide]
64000	COc1cccc(CCc2cc(NC(=O)c3ccc(Nc4ccccc4)nc3)[nH]n2)c1 [Example 26, 6-Anilino-N-[5-[2-(3-methoxyphenyl)ethyl]-2H-pyrazol-3-yl]pyridine-3-carboxamide]
260	COc1cccc(CCc2cc(NC(=O)c3ccc(NS(C)(=O)=O)cc3)[nH]n2)c1 [Example 27, 4-Methanesulfonamido-N-[5-[2-(3-methoxyphenyl)ethyl]-2H-pyrazol-3-yl]benzamide]
74	COc1cccc(CCc2cc(NC(=O)c3ccc(CO)cc3)[nH]n2)c1 [Example 28, 4-(Hydroxymethyl)-N-[5-[2-(3-methoxyphenyl)ethyl]-2H-pyrazol-3-yl]benzamide]
870	COc1cccc(CCc2cc(NC(=O)c3ccc(NC=O)cn3)[nH]n2)c1 [Example 29, 5-Formamido-N-[5-[2-(3-methoxyphenyl)ethyl]-2H-pyrazol-3-yl]pyridine-2-carboxamide]
800	COc1cccc(CCc2cc(NC(=O)c3ccc(S(=O)(=O)N(C)C)cc3)[nH]n2)c1 [Example 30, 4-(Dimethylsulfamoyl)-N-[5-[2-(3-methoxyphenyl)ethyl]-2H-pyrazol-3-yl]benzamide]
1050	COc1cccc(CCc2cc(NC(=O)c3ccc(O)nc3)[nH]n2)c1 [Example 31, 6-Hydroxy-N-[5-[2-(3-methoxyphenyl)ethyl]-2H-pyrazol-3-yl]pyridine-3-carboxamide]
27	COc1cccc(CCc2cc(NC(=O)c3ccc(N4CCOCC4)nc3)[nH]n2)c1 [Example 32, N-[5-[2-(3-Methoxyphenyl)ethyl]-2H-pyrazol-3-yl]-6-morpholin-4-yl-pyridine-3-carboxamide]
1200	COc1cccc(CCc2cc(NC(=O)c3ccc(-c4cnco4)cc3)[nH]n2)c1 [Example 33, N-[5-[2-(3-Methoxyphenyl)ethyl]-2H-pyrazol-3-yl]-4-(1,3-oxazol-5-yl)benzamide]
1000	COc1cccc(CCc2cc(NC(=O)c3ccc(-n4cnnn4)cc3)[nH]n2)c1 [Example 34, N-[5-[2-(3-Methoxyphenyl)ethyl]-2H-pyrazol-3-yl]-4-(tetrazol-1-yl)benzamide]
76000	C=CCOC(=O)Nc1ccc(C(=O)Nc2cc(CCc3cccc(OC)c3)n[nH]2)cn1 [Example 35, Prop-2-enyl N-[5-[[5-[2-(3-methoxyphenyl)ethyl]-2H-pyrazol-3-yl]carbamoyl]pyridin-2-yl]carbamate]
660	COc1cccc(CCc2cc(NC(=O)c3ccc(-n4cncn4)cc3)[nH]n2)c1 [Example 36, N-[5-[2-(3-Methoxyphenyl)ethyl]-2H-pyrazol-3-yl]-4-(1,2,4-triazol-1-yl)benzamide]
69000	COc1cccc(CCc2cc(NC(=O)c3ccc(-n4cccn4)nc3)[nH]n2)c1 [Example 37, N-[5-[2-(3-Methoxyphenyl)ethyl]-2H-pyrazol-3-yl]-6-pyrazol-1-yl-pyridine-3-carboxamide]
165	COc1cc(CCc2cc(NC(=O)c3ccc(F)cc3)[nH]n2)cc(OC)c1 [Example 38, N-[5-[2-(3,5-Dimethoxyphenyl)ethyl]-2H-pyrazol-3-yl]-4-fluoro-benzamide]
370	COc1cc(CCc2cc(NC(=O)c3cccc(OC)c3)n[nH]2)cc(OC)c1 [Example 39, N-[5-[2-(3,5-Dimethoxyphenyl)ethyl]-1H-pyrazol-3-yl]-3-methoxy-benzamide]

IC50 [nM]	Structure (SMILES)
710	COc1cc(CCc2cc(NC(=O)c3cccc(N4CCOCC4)c3)n[nH]2)cc(OC)c1 [Example 40, N-[5-[2-(3,5-Dimethoxyphenyl)ethyl]-1H-pyrazol-3-yl]-3-morpholin-4-yl-benzamide]
2610	COc1cc(CCc2cc(NC(=O)c3ccccc3OC)n[nH]2)cc(OC)c1 [Example 41, N-[5-[2-(3,5-Dimethoxyphenyl)ethyl]-1H-pyrazol-3-yl]-2-methoxy-benzamide]
75	CCOCCOc1ccc(C(=O)Nc2cc(CCc3cc(OC)cc(OC)c3)[nH]n2)cc1 [Example 42, N-[5-[2-(3,5-Dimethoxyphenyl)ethyl]-1H-pyrazol-3-yl]-4-(2-ethoxyethoxy)benzamide]
438	COc1cc(CCc2cc(NC(=O)c3ccc(N4CCCCC4)cc3)n[nH]2)cc(OC)c1 [Example 43, N-[5-[2-(3,5-Dimethoxyphenyl)ethyl]-1H-pyrazol-3-yl]-4-(1-piperidyl)benzamide]
25	COc1cc(CCc2cc(NC(=O)c3ccc(OCC4CCNCC4)cc3)n[nH]2)cc(OC)c1 [Example 44, N-[5-[2-(3,5-Dimethoxyphenyl)ethyl]-1H-pyrazol-3-yl]-4-(4-piperidylmethoxy)benzamide]
26	COc1cc(CCc2cc(NC(=O)c3ccc(N4CCNCC4)cc3)n[nH]2)cc(OC)c1 [Example 45, N-[5-[2-(3,5-Dimethoxyphenyl)ethyl]-1H-pyrazol-3-yl]-4-piperazin-1-yl-benzamide]
40	COc1cc(CCc2cc(NC(=O)c3ccc(N4CCNCC4)nc3)n[nH]2)cc(OC)c1 [Example 46, N-[5-[2-(3,5-Dimethoxyphenyl)ethyl]-1H-pyrazol-3-yl]-6-piperazin-1-yl-pyridine-3-carboxamide]
19	COc1cc(CCc2cc(NC(=O)c3ccc(CN(C)C)cc3)n[nH]2)cc(OC)c1 [Example 47, N-[5-[2-(3,5-Dimethoxyphenyl)ethyl]-1H-pyrazol-3-yl]-4-(dimethylaminomethyl)benzamide]
39	COc1cc(CCc2cc(NC(=O)c3ccc(OCCO)cc3)n[nH]2)cc(OC)c1 [Example 48, N-[5-[2-(3,5-Dimethoxyphenyl)ethyl]-1H-pyrazol-3-yl]-4-(2-hydroxyethoxy)benzamide]
1	COc1cc(CCc2cc(NC(=O)c3ccc(CN4CCCC(C)(C)C4)cc3)n[nH]2)cc(OC)c1 [Example 50, N-[5-[2-(3,5-Dimethoxyphenyl)ethyl]-1H-pyrazol-3-yl]-4-[(3,3-dimethyl-1-piperidyl)methyl]benzamide]
81	COc1cc(CCc2cc(NC(=O)c3ccc(N4CCN(CCO)CC4)cc3)n[nH]2)cc(OC)c1 [Example 51, N-[5-[2-(3,5-Dimethoxyphenyl)ethyl]-1H-pyrazol-3-yl]-4-[4-(2-hydroxyethyl)piperazin-1-yl]benzamide]
486	COc1cc(CCc2cc(NC(=O)c3ccc(CN4CCc5ccc(C#N)cc5C4)cc3)n[nH]2)cc(OC)c1 [Example 52, 4-[(7-Cyano-3,4-dihydro-1H-isoquinolin-2-yl)methyl]-N-[5-[2-(3,5-dimethoxyphenyl)ethyl]-1H-pyrazol-3-yl]benzamide]
90	COc1cc(CCc2cc(NC(=O)c3ccc(CN4CCCC(F)C4)cc3)n[nH]2)cc(OC)c1 (centres unmarked) [Example 53, N-[5-[2-(3,5-Dimethoxyphenyl)ethyl]-1H-pyrazol-3-yl]-4-[(3-fluoro-1-piperidyl)methyl]benzamide]
96	COc1cc(CCc2cc(NC(=O)c3ccc(OCCN4CCOCC4)cc3)n[nH]2)cc(OC)c1 [Example 54, N-[5-[2-(3,5-Dimethoxyphenyl)ethyl]-1H-pyrazol-3-yl]-4-(2-morpholin-4-ylethoxy)benzamide]
120	COc1cc(CCc2cc(NC(=O)c3ccc(CCN4CCOCC4)cc3)n[nH]2)cc(OC)c1 [Example 56, N-[5-[2-(3,5-Dimethoxyphenyl)ethyl]-1H-pyrazol-3-yl]-4-(2-morpholin-4-ylethyl)benzamide]
1	COc1cc(CCc2cc(NC(=O)c3ccc(C4CCNCC4)cc3)n[nH]2)cc(OC)c1 [Example 58, N-[5-[2-(3,5-Dimethoxyphenyl)ethyl]-1H-pyrazol-3-yl]-4-(4-piperidyl)benzamide]
134	COc1cc(CCc2cc(NC(=O)c3ccc(N(C)C)cc3)n[nH]2)cc(OC)c1 [Example 59, N-[5-[2-(3,5-Dimethoxyphenyl)ethyl]-1H-pyrazol-3-yl]-4-dimethylamino-benzamide]

Structure (SMILES)	IC50 [nM]
COc1cc(CCc2cc(NC(=O)c3ccc(N4CCNCC4)s3)n[nH]2)cc(OC)c1 [Example 60, N-[5-[2-(3,5-Dimethoxyphenyl)ethyl]-1H-pyrazol-3-yl]-5-piperazin-1-yl-thiophene-2-carboxamide (2,2,2-trifluoroacetic Acid Salt)]	22
